Drawing on patent US20260356851A1, “TRICYCLIC COMPOUNDS AND USES THEREOF” (HUTCHMED LIMITED, priority 2023, published 2026), this text covers IC50 for 12 compounds.

Broadly, the pIC50 is −log10 of the IC50, conventionally taken in molar units.

What all share (type): cell-based
The target of assay [1] is T1, pERK1/2 (Thr202/Tyr204), NCI-1H358 (KRAS G12C) (Homo sapiens, UniProt P01116, G12C).
T1 construct: pERK1/2 HTRF read-out
The assay can be described thus: Assay of intracellular pERK1/2 (Thr202/Tyr204) phosphorylation in NCI-H358 cells (KRAS G12C). As to conditions: pERK1/2, 2 days, read-out: NCI-H358 (KRAS G12C) IC50. An outline of the steps:
(§1)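 HTRF detection of Thr202/Tyr204-phosphorylated ERK1/2 (665/615 nm ratio) in lysates from cells treated 2 days with serially 3-fold diluted compound.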

The target of assay [2] is T2, pERK1/2 (Thr202/Tyr204), NCI-1H441 (KRAS G12V) (Homo sapiens, UniProt P01116, G12V).
T2 construct: pERK1/2 HTRF read-out
The assay can be described thus: Assay of intracellular pERK1/2 (Thr202/Tyr204) phosphorylation in NCI-H441 cells (KRAS G12V). The settings on record: pERK1/2, 2 days, read-out: NCI-H441 (KRAS G12V) IC50. Summed up: as §1

Assay [3] addresses T3, pERK1/2 (Thr202/Tyr204), PANC-1 (KRAS G121D) (Homo sapiens, UniProt P01116, G12D).
T3 construct: pERK1/2 HTRF read-out
Description: Assay of intracellular pERK1/2 (Thr202/Tyr204) phosphorylation in PANC-1 cells (KRAS G12D). As to conditions: pERK1/2, 2 days, read-out: PANC-1 (KRAS G12D) IC50. An outline of the steps:
as §1

pIC50: −log10 of the molar value.

T1 sequence (P01116 1-188 isoform P01116-2 G12C): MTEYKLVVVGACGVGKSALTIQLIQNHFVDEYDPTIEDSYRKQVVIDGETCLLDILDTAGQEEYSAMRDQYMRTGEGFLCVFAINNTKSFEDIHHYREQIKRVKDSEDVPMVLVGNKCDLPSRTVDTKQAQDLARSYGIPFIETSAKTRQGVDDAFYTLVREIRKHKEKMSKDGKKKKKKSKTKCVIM
T3 sequence (P01116 1-188 isoform P01116-2 G12D): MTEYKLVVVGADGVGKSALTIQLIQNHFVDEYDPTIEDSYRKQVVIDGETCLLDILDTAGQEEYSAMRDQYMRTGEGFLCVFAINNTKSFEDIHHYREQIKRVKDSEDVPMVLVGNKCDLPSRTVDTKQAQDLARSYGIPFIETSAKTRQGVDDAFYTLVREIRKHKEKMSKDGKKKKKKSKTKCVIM
T2 sequence (P01116 1-188 isoform P01116-2 G12V): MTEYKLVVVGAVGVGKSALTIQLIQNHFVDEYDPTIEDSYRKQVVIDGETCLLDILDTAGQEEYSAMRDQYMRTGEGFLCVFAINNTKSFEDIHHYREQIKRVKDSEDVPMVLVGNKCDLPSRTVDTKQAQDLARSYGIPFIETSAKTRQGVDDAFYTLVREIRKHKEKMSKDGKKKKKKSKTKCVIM

Regarding `CCc1c(F)ccc2cc(O)cc(-c3nc4c5c(nc(OC[C@@]67CCCN6C[C@H](F)C7)nc5c3F)N(C(C)c3cccnc3N)[C@@H](C)CO4)c12` (single isomer, unassigned) [Compound 280, 4-((S)-10-((R or S)-1-(2-aminopyridin-3-yl)ethyl)-4-fluoro-2-(((2R,7aS)-2-fluorotetrahydro-1H-pyrrolizin-7a(5H)-yl)methoxy)-9-methyl-9,10-dihydro-8H-7-oxa-1,3,6,10-tetraazacyclohepta[de]naphthalen-5-yl)-5-ethyl-6-fluoronaphthalen-2-ol], the pIC50 was 8.22 in assay [1], 7.96 in assay [2] and 8.30 in assay [3].

As to `Cc1cc(N)cc(-c2nc3c4c(nc(OC[C@@H]5C[C@@H](F)CN5C)nc4c2F)N(C(C)c2cccnc2N)[C@@H](C)CO3)c1C(F)(F)F` (single isomer, unassigned) [Compound 282, 3-((R or S)-1-((S)-5-(5-amino-3-methyl-2-(trifluoromethyl)phenyl)-4-fluoro-2-(((2S,4R)-4-fluoro-1-methylpyrrolidin-2-yl)methoxy)-9-methyl-8,9-dihydro-10H-7-oxa-1,3,6,10-tetraazacyclohepta[de]naphthalen-10-yl)ethyl)pyridin-2-amine], the pIC50 in assay [1] was 9.70; in assay [2], 9.40; in assay [3] it was 8.52.

As to `Cc1cc(N)cc(-c2nc3c4c(nc(OC[C@@H]5C[C@@H](F)CN5C)nc4c2F)N(C(C)c2cccnc2N)[C@@H](C)CO3)c1C(F)(F)F` (single isomer, unassigned) [Compound 283, 3-((R or S)-1-((S)-5-(5-amino-3-methyl-2-(trifluoromethyl)phenyl)-4-fluoro-2-(((2S,4R)-4-fluoro-1-methylpyrrolidin-2-yl)methoxy)-9-methyl-8,9-dihydro-10H-7-oxa-1,3,6,10-tetraazacyclohepta[de]naphthalen-10-yl)ethyl)pyridin-2-amine], the pIC50 in assay [1] is 7.26; in assay [2] it was below 7.00; in assay [3], below 7.00.

As to `C#Cc1c(F)ccc2cc(O)cc(-c3nc4c5c(nc(OC[C@@H]6C[C@@H](F)CN6C)nc5c3F)N(C(C)c3cccnc3N)[C@@H](C)CO4)c12` (single isomer, unassigned) [Compound 284, 4-((S)-10-((R or S)-1-(2-aminopyridin-3-yl)ethyl)-4-fluoro-2-(((2S,4R)-4-fluoro-1-methylpyrrolidin-2-yl)methoxy)-9-methyl-9,10-dihydro-8H-7-oxa-1,3,6,10-tetraazacyclohepta[de]naphthalen-5-yl)-5-ethynyl-6-fluoronaphthalen-2-ol], the pIC50 was 9.70 in assay [1], 9.30 in assay [2] and 9.52 in assay [3].

As for `C#Cc1c(F)ccc2cc(O)cc(-c3nc4c5c(nc(OC[C@@H]6C[C@@H](F)CN6C)nc5c3F)N(C(C)c3cccnc3N)[C@@H](C)CO4)c12` (single isomer, unassigned) [Compound 285, 4-((S)-10-((R or S)-1-(2-aminopyridin-3-yl)ethyl)-4-fluoro-2-(((2S,4R)-4-fluoro-1-methylpyrrolidin-2-yl)methoxy)-9-methyl-9,10-dihydro-8H-7-oxa-1,3,6,10-tetraazacyclohepta[de]naphthalen-5-yl)-5-ethynyl-6-fluoronaphthalen-2-ol], the figures for the pIC50 in assay [1], in assay [2] and in assay [3] were 7.57, 7.77 and 7.07, respectively.

For the compound `C[C@H](c1cccnc1N)N1c2nc(OC[C@@H]3C[C@@H](F)CN3C)nc3c(F)c(-c4cc(N)cc(Cl)c4C(F)(F)F)nc(c23)OC[C@@H]1C` (single isomer, unassigned) [Compound 286, 3-((R or S)-1-((S)-5-(5-amino-3-chloro-2-(trifluoromethyl)phenyl)-4-fluoro-2-(((2S,4R)-4-fluoro-1-methylpyrrolidin-2-yl)methoxy)-9-methyl-8,9-dihydro-1H-7-oxa-1,3,6,10-tetraazacyclohepta[de]naphthalen-10-yl)ethyl)pyridin-2-amine], the pIC50 in assay [1] was 7.24; in assay [2], below 7.00; in assay [3] it was below 7.00.

`CC(c1cccnc1N)N1c2nc(OC[C@@H]3C[C@@H](F)CN3C)nc3c(F)c(-c4cc(N)cc(Cl)c4C(F)(F)F)nc(c23)OC[C@@H]1C` (single isomer, unassigned) [Compound 287, 3-((R or S)-1-((S)-5-(5-amino-3-chloro-2-(trifluoromethyl)phenyl)-4-fluoro-2-(((2S,4R)-4-fluoro-1-methylpyrrolidin-2-yl)methoxy)-9-methyl-8,9-dihydro-10H-7-oxa-1,3,6,10-tetraazacyclohepta[de]naphthalen-10-yl)ethyl)pyridin-2-amine]: the results for the pIC50 in assay [1], in assay [2] and in assay [3] were 9.70, 9.40 and 8.70, respectively.

As to `CC(c1cccnc1N)N1c2nc(OC[C@@]34CCCN3C[C@H](F)C4)nc3c(F)c(-c4c(C(F)(F)F)c(Cl)cc5[nH]ncc45)nc(c23)OC[C@@H]1C` (single isomer, unassigned) [Compound 330], the values for the pIC50 in assay [1], in assay [2] and in assay [3] were 9.40, 9.30 and 9.52, respectively.

As for `CC(c1cccnc1N)N1c2nc(OC[C@@]34CCCN3C[C@H](F)C4)nc3c(F)c(-c4c(Cl)c(C(F)(F)F)cc5[nH]ncc45)nc(c23)OC[C@@H]1C` (single isomer, unassigned) [Compound 361], the negative logarithm of the IC50 (pIC50) in assay [1] is 8.70; in assay [2], 8.30; in assay [3] it was 7.47.

On to `CC(c1cccnc1N)N1c2nc(OC[C@@]34CCCN3C[C@H](F)C4)nc3c(F)c(-c4c5c(cc6[nH]ncc46)CCC5=O)nc(c23)OC[C@@H]1C` (single isomer, unassigned) [Compound 373], for which the pIC50 was 7.85 in assay [1], 7.60 in assay [2] and 7.39 in assay [3].

Turning to `Cc1c(C(F)(F)F)c(-c2nc3c4c(nc(OC[C@@]56CCCN5C[C@H](F)C6)nc4c2F)N(C(C)c2cccnc2N)[C@@H](C)CO3)c2c(Cl)n[nH]c2c1F` (single isomer, unassigned) [Compound 382], the negative logarithm of the IC50 (pIC50) in assay [1] was 8.52; in assay [2], 8.30; in assay [3], 8.70.

As to `[2H]C1([2H])CC[C@@]2(C([2H])([2H])Oc3nc4c5c(nc(-c6cc(N)c(F)c(C)c6C(F)(F)F)c(F)c5n3)OCCN4C(C)c3cccnc3N)C[C@@]([2H])(F)CN12` (single isomer, unassigned; diastereomer 1) [Compound 178, (*)3-(1-(5-(5-amino-4-fluoro-3-methyl-2-(trifluoromethyl)phenyl)-4-fluoro-2-(((2R or 2S,7aS)-2-fluorotetrahydro-1H-pyrrolizin-7a(5H)-yl-2,5,5-d3)methoxy-d2)-8,9-dihydro-10H-7-oxa-1,3,6,10-tetraazacyclohepta[de]naphthalen-10-yl)ethyl)pyridin-2-amine (diastereomer 1)], the pIC50 in assay [1] is 10.00; in assay [2], 9.40; in assay [3] it was 9.00.
